{"source": "patent US20240150313A1", "about": "“TRI-SUBSTITUTED INDOLE BINDING FUNCTION 3 (BF3) COMPOUNDS AND METHODS FOR THEIR USE” (The University of British Columbia, priority 2021, published 2024)", "key": {"[1]": {"test_system": "AR protein-protein interactions on chromatin", "assay": "RIME of the AR interactome", "conditions": "DHT treated cells"}, "[2]": {"test_system": "AR-mediated PSA expression in LNCaP cells", "assay": "Prostate-Specific Antigen (PSA) assay", "format": "cell-based, human", "conditions": "Homo sapiens, LNCaP; Table 6", "method": "Prostate-Specific Antigen (PSA) Assay: The evaluation of PSA levels secreted into the media was performed in parallel to the eGFP assay using the same plates."}, "[3]": {"test_system": "chromatin binding of AR to enhancers near KLK3 and FKBP5", "assay": "ChIP-PCR of AR binding sites", "format": "cell-based"}, "[4]": {"target": "androgen binding site (ABS) of recombinant wild type LBD (Rattus norvegicus, UniProt P15207)", "sequence (P15207 651-882 limits assumed)": "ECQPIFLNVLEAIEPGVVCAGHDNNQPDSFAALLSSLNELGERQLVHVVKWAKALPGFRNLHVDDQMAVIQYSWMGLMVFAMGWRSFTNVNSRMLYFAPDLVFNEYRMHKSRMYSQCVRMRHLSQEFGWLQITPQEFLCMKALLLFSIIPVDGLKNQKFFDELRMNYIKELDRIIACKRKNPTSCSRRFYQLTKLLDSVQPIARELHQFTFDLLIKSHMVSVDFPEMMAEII"}, "[5]": {"test_system": "androgen-mediated transcription in LNCaP cells", "assay": "RNA-seq / GSEA on LNCaP cells", "format": "cell-based, human"}, "[6]": {"test_system": "LNCaP cells", "assay": "Cell viability / proliferation assay (Prestoblue), LNCaP", "format": "cell-based, human", "conditions": "0.1 nM R1881", "method": "(§1) After 3 days of treatment, cell density was measured using the Prestoblue™ assay (Thermo Fisher Scientific™)."}, "[7]": {"assay": "Drug concentration in mouse blood and brain (HPLC, fluorescence)", "format": "in vivo, mice (C57 Black 6)", "method": "A Halo5 C18 column was used (3.0×50 mm, 5 μm particle size; injection volume: 1 μL) having a mobile phase A: 10% acetonitrile, 90% water, 10 mM NH4HCO3 and a mobile phase B: 80% acetonitrile, 20% water, 10 mM NH4HCO3, with a flow rate: 0.7 mL/min.\nThe dosing solutions were given to mice (C57 Black 6) by oral gavage at 8 μL per gram of body weight (rounded to the nearest 10 μL), corresponding to 30 mg/kg. After 3 h, the animals were euthanized, and then blood and brain samples were collected and stored at 4° C. until analysis.\nBlood samples (clotted) were centrifuged at 9,000 RPM for 2 min×2. Aliquots of the serum (30 μL) were placed in 150 μL micro-centrifuge tubes and acetonitrile (30 μL) were added. The mixture was vortexed briefly and allowed to stand at room temperature for 30 min. Full brains were weighed into 2 mL micro-centrifuge tubes and equal amount of acetonitrile (w/v) was added. […] The samples were centrifuged at 9000 RPM for 2 min×2. The supernatants were transferred to HPLC sample vials with conical inserts, and then analyzed by HPLC.\nAll compounds were dosed orally to mice, and after 3 hours, the animals were euthanized and blood and brain samples were collected. Drug levels were analyzed by HPLC equipped with a fluorescence detector as described herein."}, "[8]": {"test_system": "nuclear accumulation of exogenous (293T) or endogenous (LNCaP) AR", "assay": "AR nuclear translocation", "format": "cell-based", "conditions": "293T (exogenous) or LNCaP (endogenous), DHT", "description": "B) Heatmap of genes from the GSEA-MySigDB “Hallmark androgen response”. […] D) Nuclear translocation of exogenous (AR-eGFP in 293T) or endogenous (LNCaP) AR following treatment with DHT."}, "[9]": {"test_system": "PC3 (AR negative) cells", "assay": "Cell viability / proliferation assay (Prestoblue), PC3", "format": "cell-based, human", "method": "as §1"}, "[10]": {"assay": "Microsomal stability (half-life)", "format": "in vitro ADME, human"}, "[11]": {"assay": "Water solubility for dosing formulation", "format": "physicochemical", "conditions": "required concentration 3.75 mg/mL", "method": "13822 was water soluble and was formulated as plain aqueous solution at 3.75 mg/mL. […] A formulation screen was conducted to use various pharmaceutically acceptable surfactants and additives to develop a low organic solution or metastable heterogeneous suspension suitable for oral dosing."}, "[12]": {"assay": "Conversion of prodrug to parent drug in tissue homogenate", "format": "in vitro ADME", "conditions": "mouse small intestine tissue homogenate"}, "[13]": {"test_system": "LNCaP xenograft castration-resistant mouse model", "assay": "Castration-resistant LNCaP xenograft: serum PSA and tumour growth", "format": "in vivo", "conditions": "oral treatment, listed as 13789 prodrug", "method": "Assessment of Prostate […] Antigen and Tumour Growth for Castration-resistant LNCaP Xenografts: 6-8-Week-old nude mice (Harlan Sprague-Dawley) weighing 25-31 g were subcutaneously inoculated with LNCaP cells ([…] in BD Matrigel, BD Biosciences) at the posterior dorsal site. Tumor volume, body weight, and serum PSA levels were measured weekly. Mice were castrated when serum PSA levels reached 50 ng/ml. […] Calipers were used to measure the three perpendicular axes of each tumor to calculate the tumor volume."}}, "note": "Entries after “also recorded” stand apart in the source; their conditions may differ."}
{"smiles": "CC(C)NC(=O)c1cccc2nc(-c3c[nH]c4c(F)c(F)c(F)cc34)ccc12", "note": "[Compound 13789, N-isopropyl-2-(5,6,7-trifluoro-1H-indol-3-yl)quinoline-5-carboxamide]", "values": [{"measurement": "AR protein-protein interactions disrupted (of 112 enriched)", "setting": "[1]", "result": 34}, {"measurement": "IC50", "setting": "[2]", "result": 80, "unit": "nM"}, {"measurement": "chromatin binding of AR", "setting": "[3]", "result": "significantly reduced the chromatin binding of AR"}, {"measurement": "% Disp. @ 1 uM (DHT displacement from the ABS site)", "setting": "[4]; 1 uM", "result": "4 ± 3.8", "unit": "%"}, {"measurement": "ABS inhibition", "setting": "[4]; 10 μM", "result": "no significant ABS inhibition"}, {"measurement": "DHT displacement from ABS", "setting": "[4]; various concentrations", "result": "Very little displacement"}, {"measurement": "GSEA normalized enrichment score (canonical AR genes)", "setting": "[5]; 10 nM DHT", "result": "−3.33"}, {"measurement": "differentially expressed genes", "setting": "[5]; compared to vehicle", "result": 1514, "unit": "genes"}, {"measurement": "downregulated genes", "setting": "[5]; compared to vehicle", "result": 967}, {"measurement": "upregulated genes", "setting": "[5]; compared to vehicle", "result": 547}, {"measurement": "p53 pathway", "setting": "[5]; with androgen", "result": "upregulation of the p53 pathway"}, {"measurement": "effect on growth of LNCaP cells", "setting": "[6]", "result": "concentration-dependent inhibition of growth; also recorded: significant decrease in the growth"}, {"measurement": "metabolic stability judged from polar peaks in chromatograms", "setting": "[7]; serum and brain samples", "result": "metabolically more stable"}, {"measurement": "nuclear accumulation of AR", "setting": "[8]", "result": "only marginally affected nuclear accumulation"}, {"measurement": "effect on growth of PC3 cells", "setting": "[9]", "result": "not with AR-independent PC3 cells; also recorded: did not exhibit any inhibitory effect"}, {"measurement": "microsome stability", "setting": "[10]", "result": "good microsome stability"}, {"measurement": "half-life", "setting": "[10]; Table 6", "result": "206 (206.26)"}]}
{"smiles": "Cc1cccc2c(-c3ccc4ccccc4n3)c[nH]c12", "note": "[Compound 13566, 2-(7-Methyl-1H-indol-3-yl)quinoline]", "values": [{"measurement": "blood concentration level", "setting": "[7]; compared with 13789", "result": "much lower"}, {"measurement": "penetration of the blood-brain-barrier", "setting": "[7]; mice, 3 hour time point", "result": "significantly penetrated the blood-brain-barrier"}, {"measurement": "solubility in water", "setting": "[11]", "result": "not soluble in water at the required concentration"}]}
{"smiles": "CC(C)NC(=O)c1cccc2nc(-c3cn(COP(=O)(O)O)c4c(F)c(F)c(F)cc34)ccc12", "note": "[Compound 13822]", "values": [{"measurement": "half-life", "setting": "[12]", "result": "~2", "unit": "h"}, {"measurement": "solubility in water", "setting": "[11]", "result": "water soluble"}, {"measurement": "tumour volume / growth in xenograft", "setting": "[13]; up to 5 weeks", "result": "reduces tumor volume; also recorded: inhibited tumour growth to levels comparable with enzalutamide treatment"}, {"measurement": "serum PSA production in xenograft", "setting": "[13]", "result": "inhibits PSA production; also recorded: reducing serum PSA levels"}]}
